# Test results as given in US20230413887A1, “2'-FUCOSYLLACTOSE FOR USE IN STIMULATING F. PRAUSNITZII ABUNDANCE” (FrieslandCampina Nederland B.V., priority 2020, published 2023).
# Entries after “also recorded” stand apart in the source; their conditions may differ.
# Legend:
# [1] = test system: Faecalibacterium prausnitzii; assay: in vitro incubation of 2′-FL with fecal inoculum of adult and elderly subjects, 16S rRNA microbiota composition; format: cell-based, human; settings: 2′-FL 10 mg/ml, 10% (v/v) fecal inoculum, samples 0-24 h, adults 25-50 yrs and 70-79 yrs
# Experimental: A group of twelve randomly contacted adults—three men and three women aged 25-50 yrs and three men and three women aged 70-79 yrs—donated their fecal material for an in vitro study. Anoxically cryo-conserved fecal inoculum was defrosted and transferred to a 96% N2 and 4% H2 filled anaerobic chamber. Incubation of 2′-FL (10 mg/ml) was done with 10% (v/v) fecal inoculum in duplicate, while incubations without fecal inoculum and without carbohydrates served as controls using the standard ileal efflux medium. Samples were collected 0 h, 4 h, 10 h and 24 h after inoculation.
# Three aliquots of 1 ml from each culture bottle were then distributed into 1.5 ml Eppendorf tubes. One of these aliquots was heated at 100° C. for 5 min to determine carbohydrates in the supernatant. Afterwards, all samples were centrifuged at 4° C. at 18600 relative centrifugal force (rcf) for 10 min. The supernatants from the other two tubes were pooled and stored at −20° C. for metabolite measurement, while the remaining pellets were stored at −80 C for microbiota composition analysis.
# The microbiota composition was determined by sequencing of barcoded 16S ribosomal RNA (rRNA) gene amplicons using Illumina Hiseq2500 (2×150 bp). […]
# F. prausnitzii [2] = settings: cited from earlier work
# F. prausnitzii [3] = settings: co-culture with Bifidobacterium longum subsp. infantis; cited from earlier work
# F. prausnitzii [4] = settings: rats; cited from earlier work
substance,measurement,setting,value
2′-fucosyllactose [2′-FL],abundance of F. prausnitzii as compared to control medium without 2′-FL,[1],increase the abundance; also recorded: higher abundance
same,effect on F. prausnitzii abundance in monocultures,F. prausnitzii [2],does not affect
same,effect on F. prausnitzii abundance in co-culture,F. prausnitzii [3],not able to increase
same,F. prausnitzii abundance as a result of 2′-FL administration,F. prausnitzii [4],decrease
